{"source": "patent US20230068990A1", "about": "“PLATELET STORAGE METHODS AND COMPOSITIONS” (Platefuse, Inc., priority 2020, published 2023)", "key": {"[1]": {"system": "congenic murine platelets", "assay": "In vivo clot formation: tail bleeding time of aspirinated mice after platelet transfusion", "conditions": "10 μM, murine platelets stored cold (1-6° C.) 4 hours, 24 hours post-administration of platelets", "procedure": "Next, the influence of G04 ((S)G04 and (R)G04) on in vivo clot formation was examined. Congenic murine platelets were stored in cold (1-6° C.) for 4 hours and then administered to mice 24 hours after administration of aspirin. Bleeding time was measured for aspirinated mice receiving no platelets, vehicle-only platelets stored at room temperature, vehicle-only cold-stored platelets, vehicle+(R)G04 (75 μM) cold-stored platelets, and vehicle+(S)G04 (10 μM) cold-stored platelets. The results were compared to control non-aspirinated mice (Basal)."}, "[2]": {"system": "washed human platelet suspension", "assay": "Inhibition of collagen-induced platelet aggregation (aggregometer)", "format": "cell-based", "conditions": "washed human platelets, 2 min preincubation, collagen 4 μg/ml, read-out 6 min after induction", "procedure": "Platelet shape change in washed platelets was monitored using an aggregometer and the decrease in light transmittance following addition of an agonist (Huzoor et al., 1993). For the purpose of this analysis, collagen was used as the agonist. Briefly, a washed human platelet suspension was incubated at 37° C. in a Lumi-Aggregometer (Chrono-Log Corporation) with stirring at 900 rpm, followed by the addition of dimethylsulfoxide (DMSO) as a control vehicle, or DMSO containing (S)G04 or (R)G04 (FIG. 1A). (S)G04 and (R)G04 were tested at concentrations of 1, 5, 10, 30 and 50 μM.\nAfter incubating the samples with the respective compound for 2 minutes, platelet aggregation was induced by adding collagen ([…]) and the relative aggregation value was read out at 6 min after the induction. A dose response for each compound was derived.\nIn these experiments, a collagen concentration of 4 μg/ml was used. The IC50 values calculated for (R)G04 and (S)G04 are 40 μM and 4 μM, respectively."}, "[3]": {"system": "cold-stored human platelets", "assay": "Human platelet recovery after xenotransfusion of cold-stored human platelets into NSG mice", "format": "in vivo, human platelets in NOD/SCID/gc-/- (NSG) mice", "conditions": "10 μM in PAS-3M, cold storage 1-6° C. for 7 or 14 days, followed 24 hours post-transfusion", "procedure": "To assess (S)G04 and (R)G04 prevention of platelet activation in vivo, xenotransfusion was performed of long-term (day 7, FIG. 3 and day 14, FIG. 4) stored solutions by taking an aliquot (equivalent to 1×10^6 platelets) of CFSE-labeled cold-stored human platelets (Acrodose, pooled platelets from four ABO identical donors) that were transfused to conditioned NOD/SCID/gc−/− (NSG) mice and followed for 24 hours post-transfusion.\nFour storage conditions were tested. In all storage conditions, the vehicle was the platelet additive solution PAS-3M (Grifols, Barcelona, Spain). The storage conditions varied as follows (1) room temperature storage in vehicle only (RT-Vehicle), (2) cold storage (1-6° C., average ˜2° C.) in vehicle only (Cold-Vehicle), (3) cold storage in vehicle with 10 μM (S)G04 (Cold-G04-S), (4) cold storage in vehicle with 75 μM (R)G04 (Cold-G04-R).\nData is presented as an average of a triplicate analysis. […] Data is presented as an average of a triplicate analysis."}, "[4]": {"assay": "Pharmacokinetic study of (S)G04 in mice, serum UPLC-MS/MS", "format": "in vivo", "conditions": "IV injection of 10 and 50 μM in PAS buffer", "procedure": "Standard (S)G04 was diluted from DMSO stock (50 mM) with PAS buffer into 10 and 50 μM, administered to mice via IV injection, and serum samples were collected at time points 1, 3, 10, 30 min, and stored at −80° C. before analysis. PK samples from mice serum (retro orbital bleed) were usually 20-100 μL.\nA calibration curve in the range of 0-1 μM, i.e. 0, 0.01, 0.05, 0.1, 0.5, 1 μM, was prepared by spiking standard solution ([…] (S)G04 in PAS buffer) into blank mouse serum and then conducting serial dilution accordingly.\nQC samples were prepared in the same way with final concentration of 0.05 and 0.5 μM.\nSamples were prepared by carrying out the following steps. Add 20 μL of mouse serum (PK samples, calibrators and QCs), and 20 μL of internal standard in methanol, vortex for 30 secs. Add 100 μL of ice cold MeOH then vortex for 1 min. Let sit for 5 minutes before submitting to centrifuge for 10 minutes at 21,100×g (RCF) at 4° C. Take 100 μL of the supernatant and transfer to autosampler vial (max recovery, Waters). Put a cap on the vial, and load vials onto UPLC-MS autosampler for analysis. Because organic solvent evaporates relatively quickly at room temperature, samples in organic solvents should not be left at room temperature longer than 6 hr before injection. Set up the UPLC-MS/MS system: cleaning cone, in accordance with the manufacturer's Operation SOP/documents. […]"}}}
{"smiles": "N[C@@H](Cc1c[nH]c2ccccc12)C(=O)N/N=C/c1ccc2nccnc2c1", "note": "[(S)G04]", "values": [{"measurement": "bleeding time of aspirinated mice", "setting": "[1]", "value": "completely corrected the bleeding time"}, {"measurement": "IC50", "setting": "[2]", "value": 4, "unit": "µM"}, {"measurement": "survival of cold-stored platelets (recovery and AUC) after xenotransfusion", "setting": "[3]", "value": "completely prevented the decreased survival"}, {"measurement": "reduction of the injection concentration in 1 minute", "setting": "[4]", "value": "> 100", "unit": "×"}]}
